Results published in article PMC3961306, “Comparison of the Cancer Gene Targeting and Biochemical Selectivities of All Targeted Kinase Inhibitors Approved for Clinical Use” (PLoS ONE, 2014).

How the values were obtained:
Assay in all cases: Kinase profiling in a biochemical assay panel (mobility shift assays and ELISA), %-inhibition at 1 μM; selectivity entropy
[1] = biological target: panel of more than 300 wild-type and mutant kinases (313 kinase panel) (Homo sapiens, UniProt Q9Y6M4)
[2] = biological target: T1, panel of more than 300 wild-type and mutant kinases (313 kinase panel) (Homo sapiens, UniProt O60285)
T1 sequence (O60285 1-661): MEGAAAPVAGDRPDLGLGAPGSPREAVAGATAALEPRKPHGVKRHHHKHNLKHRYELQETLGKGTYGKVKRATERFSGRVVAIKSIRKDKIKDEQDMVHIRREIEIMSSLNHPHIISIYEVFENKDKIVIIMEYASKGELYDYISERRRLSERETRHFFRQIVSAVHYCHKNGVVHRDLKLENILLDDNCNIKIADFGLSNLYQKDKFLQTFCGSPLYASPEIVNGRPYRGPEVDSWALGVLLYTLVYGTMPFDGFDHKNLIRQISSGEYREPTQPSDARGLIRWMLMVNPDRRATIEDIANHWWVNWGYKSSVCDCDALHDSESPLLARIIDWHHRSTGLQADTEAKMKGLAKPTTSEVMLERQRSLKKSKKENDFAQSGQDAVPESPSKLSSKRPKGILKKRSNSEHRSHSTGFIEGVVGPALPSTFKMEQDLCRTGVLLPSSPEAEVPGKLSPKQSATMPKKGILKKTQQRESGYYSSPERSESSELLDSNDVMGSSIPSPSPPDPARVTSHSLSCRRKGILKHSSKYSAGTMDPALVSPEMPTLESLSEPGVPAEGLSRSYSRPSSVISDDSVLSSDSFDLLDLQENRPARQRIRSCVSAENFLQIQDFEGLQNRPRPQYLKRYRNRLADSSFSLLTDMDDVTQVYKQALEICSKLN

[3] = biological target: T2, panel of more than 300 wild-type and mutant kinases (313 kinase panel) (Homo sapiens, UniProt P54753)
T2 sequence (P54753 34-998): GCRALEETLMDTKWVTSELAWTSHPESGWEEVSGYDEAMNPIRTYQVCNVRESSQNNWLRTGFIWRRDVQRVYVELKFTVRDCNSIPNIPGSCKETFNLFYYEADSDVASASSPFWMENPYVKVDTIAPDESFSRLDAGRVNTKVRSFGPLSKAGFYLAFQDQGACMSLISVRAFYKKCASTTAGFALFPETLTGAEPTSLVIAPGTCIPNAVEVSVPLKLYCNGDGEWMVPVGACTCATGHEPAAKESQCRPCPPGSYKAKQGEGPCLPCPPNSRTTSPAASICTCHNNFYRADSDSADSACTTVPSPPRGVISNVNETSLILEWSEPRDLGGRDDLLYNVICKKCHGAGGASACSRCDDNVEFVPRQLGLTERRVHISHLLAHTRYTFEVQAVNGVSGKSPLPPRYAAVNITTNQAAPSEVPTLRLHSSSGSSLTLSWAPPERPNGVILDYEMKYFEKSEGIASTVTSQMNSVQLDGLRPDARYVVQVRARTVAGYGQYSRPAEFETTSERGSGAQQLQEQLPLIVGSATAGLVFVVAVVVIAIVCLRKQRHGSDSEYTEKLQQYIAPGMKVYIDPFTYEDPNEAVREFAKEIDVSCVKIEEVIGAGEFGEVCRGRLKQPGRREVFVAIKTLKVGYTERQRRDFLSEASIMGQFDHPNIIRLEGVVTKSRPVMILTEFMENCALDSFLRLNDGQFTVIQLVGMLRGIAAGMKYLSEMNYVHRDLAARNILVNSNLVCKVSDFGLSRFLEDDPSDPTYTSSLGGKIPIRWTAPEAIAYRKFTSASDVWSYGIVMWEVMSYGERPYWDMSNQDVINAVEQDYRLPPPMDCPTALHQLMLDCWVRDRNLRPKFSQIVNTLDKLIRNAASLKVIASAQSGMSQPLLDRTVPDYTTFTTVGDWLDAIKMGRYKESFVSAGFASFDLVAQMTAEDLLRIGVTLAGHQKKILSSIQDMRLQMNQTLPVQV

[4] = biological target: T3, panel of more than 300 wild-type and mutant kinases (313 kinase panel) (Homo sapiens, UniProt Q13188)
T3 sequence (Q13188 1-491): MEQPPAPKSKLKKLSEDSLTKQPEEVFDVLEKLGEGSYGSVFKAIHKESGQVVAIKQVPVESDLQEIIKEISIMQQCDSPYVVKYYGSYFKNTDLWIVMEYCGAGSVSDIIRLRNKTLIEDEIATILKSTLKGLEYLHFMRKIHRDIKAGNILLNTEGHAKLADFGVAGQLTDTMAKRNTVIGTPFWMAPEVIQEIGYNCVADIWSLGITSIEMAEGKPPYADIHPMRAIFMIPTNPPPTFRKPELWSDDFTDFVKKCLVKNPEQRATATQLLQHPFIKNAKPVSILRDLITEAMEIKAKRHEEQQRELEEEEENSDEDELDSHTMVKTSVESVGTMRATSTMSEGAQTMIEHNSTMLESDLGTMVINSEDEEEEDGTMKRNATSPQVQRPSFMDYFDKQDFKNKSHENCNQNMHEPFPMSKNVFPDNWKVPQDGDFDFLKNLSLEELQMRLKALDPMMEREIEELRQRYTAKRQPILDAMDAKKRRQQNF

[5] = biological target: panel of more than 300 wild-type and mutant kinases (313 kinase panel) (Homo sapiens, UniProt P54764)
Sequence of panel of more than 300 wild-type and mutant kinases (313 kinase panel) (Homo sapiens, UniProt P54764) (P54764 20-986, change not shown): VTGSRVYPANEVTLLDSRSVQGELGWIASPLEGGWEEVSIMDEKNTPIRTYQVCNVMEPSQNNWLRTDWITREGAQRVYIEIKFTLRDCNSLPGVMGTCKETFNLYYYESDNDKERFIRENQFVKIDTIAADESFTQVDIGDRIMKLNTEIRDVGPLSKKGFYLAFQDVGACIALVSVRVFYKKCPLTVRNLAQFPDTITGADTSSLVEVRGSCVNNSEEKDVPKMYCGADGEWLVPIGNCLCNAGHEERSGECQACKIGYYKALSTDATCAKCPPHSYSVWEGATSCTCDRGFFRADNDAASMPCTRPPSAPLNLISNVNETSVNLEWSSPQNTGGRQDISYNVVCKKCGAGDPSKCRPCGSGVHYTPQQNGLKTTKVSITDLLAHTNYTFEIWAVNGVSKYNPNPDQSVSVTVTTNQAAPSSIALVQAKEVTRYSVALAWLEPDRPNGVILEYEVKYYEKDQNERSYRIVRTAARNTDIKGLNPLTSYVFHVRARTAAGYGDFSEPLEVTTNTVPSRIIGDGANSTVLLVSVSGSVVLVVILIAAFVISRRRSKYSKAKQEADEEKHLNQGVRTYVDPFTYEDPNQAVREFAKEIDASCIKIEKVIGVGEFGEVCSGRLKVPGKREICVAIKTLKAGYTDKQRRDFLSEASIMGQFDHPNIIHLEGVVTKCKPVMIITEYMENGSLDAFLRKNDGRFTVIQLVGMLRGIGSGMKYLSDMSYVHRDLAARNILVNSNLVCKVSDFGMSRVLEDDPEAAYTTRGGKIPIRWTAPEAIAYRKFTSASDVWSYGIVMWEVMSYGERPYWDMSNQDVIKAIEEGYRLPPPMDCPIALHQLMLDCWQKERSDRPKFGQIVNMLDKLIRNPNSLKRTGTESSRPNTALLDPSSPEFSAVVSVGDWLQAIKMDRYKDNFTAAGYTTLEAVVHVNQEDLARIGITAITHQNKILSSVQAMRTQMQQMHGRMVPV

Sequence of panel of more than 300 wild-type and mutant kinases (313 kinase panel) (Homo sapiens, UniProt Q9Y6M4) (Q9Y6M4 whole entry, change not shown): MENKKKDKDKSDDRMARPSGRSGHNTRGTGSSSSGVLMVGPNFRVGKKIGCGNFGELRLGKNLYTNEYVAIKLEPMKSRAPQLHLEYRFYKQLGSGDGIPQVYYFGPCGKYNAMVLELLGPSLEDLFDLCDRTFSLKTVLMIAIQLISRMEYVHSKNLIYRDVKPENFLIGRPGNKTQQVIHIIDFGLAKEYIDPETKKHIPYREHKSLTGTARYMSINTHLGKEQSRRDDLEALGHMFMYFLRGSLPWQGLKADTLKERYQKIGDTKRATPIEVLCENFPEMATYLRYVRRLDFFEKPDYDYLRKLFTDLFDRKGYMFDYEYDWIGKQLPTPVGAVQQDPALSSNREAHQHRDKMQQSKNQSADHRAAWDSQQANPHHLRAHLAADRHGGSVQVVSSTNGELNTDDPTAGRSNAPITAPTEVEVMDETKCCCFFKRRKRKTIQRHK

COc1cc(Nc2c(C#N)cnc3cc(OCCCN4CCN(C)CC4)c(OC)cc23)c(Cl)cc1Cl [bosutinib]
%-inhibition, CK1γ3 ([1]; kinase CK1γ3, 1 μM compound): 3.3% | %-inhibition of NuaK1 ([2]; kinase NuaK1, 1 μM): 84%

COc1cc2nccc(Oc3ccc(NC(=O)C4(C(=O)Nc5ccc(F)cc5)CC4)cc3)c2cc1OC [cabozantinib]
%-inhibition of EPHB3 ([3]; kinase EPHB3, compound at 1 μM): 85% | %-inhibition of MST2 ([4]; kinase MST2, 1 μM): -0.31% | %-inhibition of EPHA4 ([5]; kinase EPHA4, compound at 1 μM): 97% | %-inhibition, CK1γ3 ([1]; kinase CK1γ3, 1 μM compound): 5% | %-inhibition of NuaK1 ([2]; kinase NuaK1, 1 μM): 7%

C[C@@H](Oc1cc(-c2cnn(C3CCNCC3)c2)cnc1N)c1c(Cl)ccc(F)c1Cl [crizotinib]
%-inhibition of EPHB3 ([3]; kinase EPHB3, compound at 1 μM): 5% | %-inhibition of MST2 ([4]; kinase MST2, 1 μM): 13% | %-inhibition of EPHA4 ([5]; kinase EPHA4, compound at 1 μM): 58% | %-inhibition, CK1γ3 ([1]; kinase CK1γ3, 1 μM compound): 4% | %-inhibition of NuaK1 ([2]; 1 µM): 99%

CC(C)(C)c1nc(-c2cccc(NS(=O)(=O)c3c(F)cccc3F)c2F)c(-c2ccnc(N)n2)s1 [dabrafenib]
%-inhibition of EPHB3 ([3]; kinase EPHB3, compound at 1 μM): 3% | %-inhibition of EPHA4 ([5]; kinase EPHA4, compound at 1 μM): 12% | %-inhibition of NuaK1 ([2]; kinase NuaK1, 1 μM): 7%

C#Cc1cccc(Nc2ncnc3cc(OCCOC)c(OCCOC)cc23)c1 [erlotinib]
%-inhibition of EPHB3 ([3]; 1 µM): 5% | %-inhibition of MST2 ([4]; 1 µM): 7% | %-inhibition of EPHA4 ([5]; 1 µM): 32% | %-inhibition, CK1γ3 ([1]; 1 µM): -0.719% | %-inhibition of NuaK1 ([2]; 1 µM): 12%

CO[C@H]1C[C@@H]2CC[C@@H](C)[C@@](O)(O2)C(=O)C(=O)N2CCCC[C@H]2C(=O)O[C@H]([C@H](C)C[C@@H]2CC[C@@H](OCCO)[C@H](OC)C2)CC(=O)[C@H](C)/C=C(\C)[C@@H](O)[C@@H](OC)C(=O)[C@H](C)C[C@H](C)/C=C/C=C/C=C/1C [everolimus]
%-inhibition of EPHB3 ([3]; kinase EPHB3, compound at 1 μM): -5% | %-inhibition of MST2 ([4]; kinase MST2, 1 μM): -2.3% | %-inhibition of EPHA4 ([5]; kinase EPHA4, compound at 1 μM): -2.61% | %-inhibition, CK1γ3 ([1]; kinase CK1γ3, 1 μM compound): -13% | %-inhibition of NuaK1 ([2]; kinase NuaK1, 1 μM): 4.27%

O=S(=O)(c1cccc2cnccc12)N1CCCNCC1 [fasudil]
%-inhibition of EPHB3 ([3]; kinase EPHB3, compound at 1 μM): -4% | %-inhibition of MST2 ([4]; kinase MST2, 1 μM): 1.77% | %-inhibition of EPHA4 ([5]; kinase EPHA4, compound at 1 μM): -6% | %-inhibition, CK1γ3 ([1]; kinase CK1γ3, 1 μM compound): -4% | %-inhibition of NuaK1 ([2]; kinase NuaK1, 1 μM): 44%

CS(=O)(=O)CCNCc1ccc(-c2ccc3ncnc(Nc4ccc(OCc5cccc(F)c5)c(Cl)c4)c3c2)o1 [lapatinib]
%-inhibition of EPHB3 ([3]; kinase EPHB3, compound at 1 μM): 5% | %-inhibition of MST2 ([4]; 1 µM): -0.701% | %-inhibition of EPHA4 ([5]; kinase EPHA4, compound at 1 μM): -0.823% | %-inhibition, CK1γ3 ([1]; 1 µM): -0.863% | %-inhibition of NuaK1 ([2]; kinase NuaK1, 1 μM): 3%

Cc1cn(-c2cc(NC(=O)c3ccc(C)c(Nc4nccc(-c5cccnc5)n4)c3)cc(C(F)(F)F)c2)cn1 [nilotinib]
%-inhibition of EPHB3 ([3]; kinase EPHB3, compound at 1 μM): 92% | %-inhibition of MST2 ([4]; kinase MST2, 1 μM): -8% | %-inhibition, CK1γ3 ([1]; 1 µM): -10% | %-inhibition of NuaK1 ([2]; 1 µM): -17%

Cc1ccc(Nc2nccc(N(C)c3ccc4c(C)n(C)nc4c3)n2)cc1S(N)(=O)=O [pazopanib]
%-inhibition of EPHB3 ([3]; kinase EPHB3, compound at 1 μM): -0.529% | %-inhibition of MST2 ([4]; kinase MST2, 1 μM): 2% | %-inhibition of EPHA4 ([5]; kinase EPHA4, compound at 1 μM): 22% | %-inhibition, CK1γ3 ([1]; kinase CK1γ3, 1 μM compound): -2% | %-inhibition of NuaK1 ([2]; kinase NuaK1, 1 μM): 73%

Cc1ccc(C(=O)Nc2ccc(CN3CCN(C)CC3)c(C(F)(F)F)c2)cc1C#Cc1cnc2cccnn12 [ponatinib]
%-inhibition of EPHB3 ([3]; kinase EPHB3, compound at 1 μM): 101% | %-inhibition, CK1γ3 ([1]; kinase CK1γ3, 1 μM compound): 4.6% | %-inhibition of NuaK1 ([2]; kinase NuaK1, 1 μM): 5%

CNC(=O)c1cc(Oc2ccc(NC(=O)Nc3ccc(Cl)c(C(F)(F)F)c3)c(F)c2)ccn1 [regorafenib]
%-inhibition of EPHB3 ([3]; kinase EPHB3, compound at 1 μM): 22% | %-inhibition of MST2 ([4]; kinase MST2, 1 μM): -6.39% | %-inhibition of EPHA4 ([5]; kinase EPHA4, compound at 1 μM): 92% | %-inhibition, CK1γ3 ([1]; kinase CK1γ3, 1 μM compound): -2.14% | %-inhibition of NuaK1 ([2]; kinase NuaK1, 1 μM): -1.75%

N#CC[C@H](C1CCCC1)n1cc(-c2ncnc3[nH]ccc23)cn1 [ruxolitinib]
%-inhibition of EPHB3 ([3]; 1 µM): 2.73% | %-inhibition of MST2 ([4]; kinase MST2, 1 μM): 3% | %-inhibition of EPHA4 ([5]; kinase EPHA4, compound at 1 μM): 12% | %-inhibition, CK1γ3 ([1]; kinase CK1γ3, 1 μM compound): 4.6% | %-inhibition of NuaK1 ([2]; kinase NuaK1, 1 μM): 55%

CO[C@H]1C[C@@H]2CC[C@@H](C)[C@@](O)(O2)C(=O)C(=O)N2CCCC[C@H]2C(=O)O[C@H]([C@H](C)C[C@@H]2CC[C@@H](OC(=O)C(C)(CO)CO)[C@H](OC)C2)CC(=O)[C@H](C)/C=C(\C)[C@@H](O)[C@@H](OC)C(=O)[C@H](C)C[C@H](C)/C=C/C=C/C=C/1C [temsirolimus]
%-inhibition of EPHB3 ([3]; kinase EPHB3, compound at 1 μM): -13% | %-inhibition of MST2 ([4]; kinase MST2, 1 μM): -3.41% | %-inhibition of EPHA4 ([5]; kinase EPHA4, compound at 1 μM): -4.51% | %-inhibition, CK1γ3 ([1]; kinase CK1γ3, 1 μM compound): -1% | %-inhibition of NuaK1 ([2]; kinase NuaK1, 1 μM): 3.3%

CC(=O)Nc1cccc(-n2c(=O)n(C3CC3)c(=O)c3c(Nc4ccc(I)cc4F)n(C)c(=O)c(C)c32)c1 [trametinib]
%-inhibition of EPHB3 ([3]; 1 µM): -5.47% | %-inhibition of MST2 ([4]; kinase MST2, 1 μM): -3% | %-inhibition of EPHA4 ([5]; kinase EPHA4, compound at 1 μM): -5.3% | %-inhibition of NuaK1 ([2]; kinase NuaK1, 1 μM): -0.634%

COc1cc2c(Nc3ccc(Br)cc3F)ncnc2cc1OCC1CCN(C)CC1 [vandetanib]
%-inhibition of EPHB3 ([3]; kinase EPHB3, compound at 1 μM): 8% | %-inhibition of MST2 ([4]; kinase MST2, 1 μM): -4% | %-inhibition, CK1γ3 ([1]; kinase CK1γ3, 1 μM compound): 2.66% | %-inhibition of NuaK1 ([2]; kinase NuaK1, 1 μM): 16%

CCCS(=O)(=O)Nc1ccc(F)c(C(=O)c2c[nH]c3ncc(-c4ccc(Cl)cc4)cc23)c1F [vemurafenib]
%-inhibition of EPHB3 ([3]; kinase EPHB3, compound at 1 μM): 2% | %-inhibition of MST2 ([4]; kinase MST2, 1 μM): 24% | %-inhibition of EPHA4 ([5]; kinase EPHA4, compound at 1 μM): -2% | %-inhibition, CK1γ3 ([1]; kinase CK1γ3, 1 μM compound): 2.14% | %-inhibition of NuaK1 ([2]; kinase NuaK1, 1 μM): 4%
